Reference: patent EP2951180B1, “2,6,7,8 SUBSTITUTED PURINES AS HDM2 INHIBITORS” (Merck Sharp & Dohme Corp., priority 2013, dated 2014)
pIC50: −log10 of the molar value.

What follows are compounds tested against T1, HDM2 (Homo sapiens, UniProt Q00987) (assay: HDM2 FRET assay (inhibition of binding of FITC labeled p53-pocket peptide to HDM2)). Conditions: 0.5 nM HDM2 (residues 17 to 125), 3nM peptide, two hour incubation at room temperature; read-out: FRET IC50.
T1 construct: Thioredoxin (N); made in house; host or cells: E. coli strain BL21(DE3)Rosetta
T1 sequence (Q00987 17-125): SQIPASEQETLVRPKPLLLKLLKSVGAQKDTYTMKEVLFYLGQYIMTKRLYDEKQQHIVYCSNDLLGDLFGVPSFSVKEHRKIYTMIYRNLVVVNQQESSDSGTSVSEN
In short: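 Displacement of FITC-p53 peptide (3 nM) from His-tagged HDM2 (0.5 nM) is measured by Tb-to-fluorescein FRET in PBS, 0.01% BSA, 0.01% Tween-20. IC50 values derive from 10-point curves.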
C[C@](CO)(Nc1nc2nc(-c3noc(=O)[nH]3)nc(-c3cccc(Cl)c3)c2n1C[C@H]1CC[C@H](C)CC1)c1ccccc1 [Example 16.5, 3-(6-(3-chlorophenyl)-8-(((S)-1-hydroxy-2-phenylpropan-2-yl)amino)-7-(((trans)-4-methylcyclohexyl)methyl)-7H-purin-2-yl)-1,2,4-oxadiazol-5(4H)-one] was tested, and the pIC50 was 8.80.
In the case of C[C@@H]1COCCN1c1nc2nc(-c3noc(=O)[nH]3)nc(-c3cccc(Cl)c3)c2n1C[C@H]1CC[C@H](C)CC1 [Example 16.6, 3-(6-(3-chlorophenyl)-7-(((trans)-4-methylcyclohexyl)methyl)-8-((R)-3-methylmorpholino)-7H-purin-2-yl)-1,2,4-oxadiazol-5(4H)-one], the pIC50 was 8.09.
C[C@@H]1COCCN1c1nc2nc(-c3n[nH]c(=O)o3)nc(-c3cccc(Cl)c3)c2n1C[C@H]1CC[C@H](C)CC1 [Example 16.7, 5-(6-(3-chlorophenyl)-7-(((trans)-4-methylcyclohexyl)methyl)-8-((R)-3-methylmorpholino)-7H-purin-2-yl)-1,3,4-oxadiazol-2(3H)-one] showed a pIC50 of 7.84.
C[C@H](O)[C@H](Nc1nc2nc(-c3noc(=O)[nH]3)nc(-c3cccc(Cl)c3)c2n1C[C@H]1CC[C@H](C)CC1)c1ccccc1 [Example 16.8, 3-(6-(3-chlorophenyl)-8-(((1R,2S)-2-hydroxy-1-phenylpropyl)amino)-7-(((trans)-4-methylcyclohexyl)methyl)-7H-purin-2-yl)-1,2,4-oxadiazol-5(4H)-one] gave a pIC50 of 8.83.
Work on C[C@@H]1OC(=O)N(c2nc3nc(-c4noc(=O)[nH]4)nc(-c4cccc(Cl)c4)c3n2C[C@H]2CC[C@H](C)CC2)[C@@H]1c1ccccc1 [Example 16.9, 3-(6-(3-chlorophenyl)-8-((4R,5S)-5-methyl-2-oxo-4-phenyloxazolidin-3-yl)-7-(((trans)-4-methylcyclohexyl)methyl)-7H-purin-2-yl)-1,2,4-oxadiazol-5(4H)-one] yielded a pIC50 of 8.52.
C[C@@H]1COCCN1c1nc2nc(-c3noc(=O)[nH]3)nc(-c3cncc(Cl)c3)c2n1C[C@H]1CC[C@H](C)CC1 [Example 16.10, 3-(6-(5-chloropyridin-3-yl)-7-(((trans)-4-methylcyclohexyl)methyl)-8-((R)-3-methylmorpholino)-7H-purin-2-yl)-1,2,4-oxadiazol-5(4H)-one] showed a pIC50 of 7.74.
In the case of C[C@@H]1COCCN1c1nc2nc(-c3n[nH]c(=O)o3)nc(-c3cncc(Cl)c3)c2n1C[C@H]1CC[C@H](C)CC1 [Example 16.11, 5-(6-(5-chloropyridin-3-yl)-7-(((trans)-4-methylcyclohexyl)methyl)-8-((R)-3-methylmorpholino)-7H-purin-2-yl)-1,3,4-oxadiazol-2(3H)-one], the pIC50 was 7.56.
Compound C[C@H]1CC[C@H](Cn2c(N3CCOC[C@H]3c3ccccc3)nc3nc(-c4noc(=O)[nH]4)nc(-c4ccccc4)c32)CC1 [Example 16.12, 3-(7-(((trans)-4-methylcyclohexyl)methyl)-6-phenyl-8-((R)-3-phenylmorpholino)-7H-purin-2-yl)-1,2,4-oxadiazol-5(4H)-one] has a pIC50 of 8.00.
CC(C)c1ccnc(-c2nc3nc(C(=O)O)nc(-c4ccc(F)cc4)c3n2C[C@H]2CC[C@H](C)CC2)c1 [Example 16.13, 6-(4-fluorophenyl)-7-[(trans-4-methylcyclohexyl)methyl]-8-[4-(1-methylethyl)pyridin-2-yl]-7H-purine-2-carboxylic acid] gave a pIC50 of 6.40.
Cc1cccc(-c2nc(C(=O)O)nc3nc(-c4cc(C(C)C)ccn4)n(C[C@H]4CC[C@H](C)CC4)c23)c1 [Example 16.14, 7-[(trans-4-methylcyclohexyl)methyl]-8-[4-(1-methylethyl)pyridin-2-yl]-6-(3-methylphenyl)-7H-purine-2-carboxylic acid] gave a pIC50 of 7.45.
Work on Cc1cccc(-c2nc(-c3noc(=O)[nH]3)nc3nc(-c4cc(C(C)C)ccn4)n(C[C@H]4CC[C@H](C)CC4)c23)c1 [Example 16.15, 3-{7-[(trans-4-methylcyclohexyl)methyl]-8-[4-(1-methylethyl)pyridin-2-yl]-6-(3-methylphenyl)-7H-purin-2-yl}-1,2,4-oxadiazol-5(4H)-one] yielded a pIC50 of 7.52.
Work on CC(C)c1ccnc(-c2nc3nc(-c4noc(=O)[nH]4)nc(-c4cccc(Cl)c4)c3n2C[C@H]2CC[C@H](C)CC2)c1 [Example 16.16, 3-{6-(3-chlorophenyl)-7-[(trans-4-methylcyclohexyl)methyl]-8-[4-(1-methylethyl)pyridin-2-yl]-7H-purin-2-yl}-1,2,4-oxadiazol-5(4H)-one] yielded a pIC50 of 7.94.
Compound Cc1cccc(-c2nc(-c3noc(=O)[nH]3)nc3nc(N4CCOC[C@H]4c4ccccc4)n(C[C@H]4CC[C@H](C)CC4)c23)c1 [Example 16.17, 3-{7-[(trans-4-methylcyclohexyl)methyl]-6-(3-methylphenyl)-8-[(3R)-3-phenylmorpholin-4-yl]-7H-purin-2-yl}-1,2,4-oxadiazol-5(4H)-one] has a pIC50 of 8.40.
With C[C@H]1CC[C@H](Cn2c(N3CCOC[C@H]3c3ccccc3)nc3nc(-c4noc(=O)[nH]4)nc(-c4cccc(Cl)c4)c32)CC1 [Example 16.18, 3-{6-(3-chlorophenyl)-7-[(trans-4-methylcyclohexyl)methyl]-8-[(3R)-3-phenylmorpholin-4-yl]-7H-purin-2-yl}-1,2,4-oxadiazol-5(4H)-one] the pIC50 was 8.90.
Work on C[C@H]1CC[C@H](Cn2c(N3CCOC[C@H]3c3ccccc3)nc3nc(-c4noc(=O)[nH]4)nc(-c4cc(Cl)cc(Cl)c4)c32)CC1 [Example 16.19, 3-{6-(3,5-dichlorophenyl)-7-[(trans-4-methylcyclohexyl)methyl]-8-[(3R)-3-phenylmorpholin-4-yl]-7H-purin-2-yl}-1,2,4-oxadiazol-5(4H)-one] yielded a pIC50 of 9.00.
Work on C[C@H]1CC[C@H](Cn2c(N3CCOC[C@H]3c3ccccc3)nc3nc(-c4noc(=O)[nH]4)nc(-c4cc(F)cc(Cl)c4)c32)CC1 [Example 16.20, 3-{6-(3-chloro-5-fluorophenyl)-7-[(trans-4-methylcyclohexyl)methyl]-8-[(3R)-3-phenylmorpholin-4-yl]-7H-purin-2-yl}-1,2,4-oxadiazol-5(4H)-one] yielded a pIC50 of 8.92.
C[C@H]1CC[C@H](Cn2c(N3CCOC[C@H]3c3ccccc3)nc3nc(-c4n[nH]c(=O)o4)nc(-c4cccc(Cl)c4)c32)CC1 [Example 16.21, 5-{6-(3-chlorophenyl)-7-[(trans-4-methylcyclohexyl)methyl]-8-[(3R)-3-phenylmorpholin-4-yl]-7H -purin-2-yl}-1,3,4-oxadiazol-2(3H)-one] showed a pIC50 of 8.65.
Work on C[C@H]1CC[C@H](Cn2c(N3CCOC[C@H]3c3ccccc3)nc3nc(C(=O)O)nc(-c4cccc(Cl)c4)c32)CC1 [Example 16.22, 6-(3-chlorophenyl)-7-[(trans-4-methylcyclohexyl)methyl]-8-[(3R)-3-phenylmorpholin-4-yl]-7H-purine-2-carboxylic acid] yielded a pIC50 of 9.17.
C[C@H]1CC[C@H](Cn2c(N3CCOC[C@H]3c3ccccc3)nc3nc(-c4noc(=O)[nH]4)nc(-c4cccc(Cl)c4F)c32)CC1 [Example 16.23, 3-{6-(3-chloro-2-fluorophenyl)-7-[(trans-4-methylcyclohexyl)methyl]-8-[(3R)-3-phenylmorpholin-4-yl]-7H-purin-2-yl}-1,2,4-oxadiazol-5(4H)-one] was tested, and the pIC50 was 8.84.
Compound C[C@H]1CC[C@H](Cn2c(N3CCOC[C@H]3c3ccccc3)nc3nc(-c4noc(=O)[nH]4)nc(-c4ccc(F)c(Cl)c4)c32)CC1 [Example 16.24, 3-{6-(3-chloro-4-fluorophenyl)-7-[(trans-4-methylcyclohexyl)methyl]-8-[(3R)-3-phenylmorpholin-4-yl]-7H-purin-2-yl}-1,2,4-oxadiazol-5(4H)-one] has a pIC50 of 8.25.
C[C@H]1CC[C@H](Cn2c(N3CCOC[C@H]3c3ccccc3)nc3nc(-c4noc(=O)[nH]4)nc(-c4cc(Cl)ccc4F)c32)CC1 [Example 16.25, 3-{6-(5-chloro-2-fluorophenyl)-7-[(trans-4-methylcyclohexyl)methyl]-8-[(3R)-3-phenylmorpholin-4-yl]-7H-purin-2-yl} -1,2,4-oxadiazol-5(4H)-one] showed a pIC50 of 8.79.
C[C@H]1CC[C@H](Cn2c(N3CCOC[C@H]3c3ccccc3)nc3nc(-c4noc(=O)[nH]4)nc(-c4cncc(Cl)c4)c32)CC1 [Example 16.26, 3-{6-(5-chloropyridin-3-yl)-7-[(trans-4-methylcyclohexyl)methyl]-8-[(3R)-3-phenylmorpholin-4-yl]-7H-purin-2-yl}-1,2,4-oxadiazol-5(4H)-one] showed a pIC50 of 9.29.
Work on Cc1cccc(-c2nc(-c3noc(=O)[nH]3)nc3nc(N4CCOCC4)n(C[C@H]4CC[C@H](C)CC4)c23)c1 [Example 16.27, 3-{7-[(trans-4-methylcyclohexyl)methyl]-6-(3-methylphenyl)-8-morpholin-4-yl-7H-purin-2-yl}-1,2,4-oxadiazol-5(4H)-one] yielded a pIC50 of 6.48.
In the case of Cc1cccc(-c2nc(-c3noc(=O)[nH]3)nc3nc(N4CCOC[C@H]4C)n(C[C@H]4CC[C@H](C)CC4)c23)c1 [Example 16.28, 3-{7-[(trans-4-methylcyclohexyl)methyl]-8-[(3R)-3-methylmorpholin-4-yl]-6-(3-methylphenyl)-7H-purin-2-yl}-1,2,4-oxadiazol-5(4H)-one], the pIC50 was 7.41.
CC1(C)COCCN1c1nc2nc(-c3noc(=O)[nH]3)nc(-c3cccc(Cl)c3)c2n1C[C@H]1CC[C@H](C)CC1 [Example 16.29, 3-{6-(3-chlorophenyl)-8-(3,3-dimethylmorpholin-4-yl)-7-[(trans-4-methylcyclohexyl)methyl]-7H-purin-2-yl}-1,2,4-oxadiazol-5(4H)-one] showed a pIC50 of 8.28.
CCc1cccc(-c2nc(-c3noc(=O)[nH]3)nc3nc(N4CCOC[C@H]4c4ccccc4)n(C[C@H]4CC[C@H](C)CC4)c23)c1 [Example 16.30, 3-{6-(3-ethylphenyl)-7-[(trans-4-methylcyclohexyl)methyl]-8-[(3R)-3-phenylmorpholin-4-yl]-7H-purin-2-yl}-1,2,4-oxadiazol-5(4H)-one] gave a pIC50 of 8.56.
